Experimental data taken from patent US9670227B2, “Thienopyrimidine derivatives, a process for their preparation and pharmaceutical compositions containing them” (LES LABORATOIRES SERVIER, priority 2013, dated 2017).
Like-named read-outs stand apart in the source and are kept apart here.

Experiments:
[1] = system: H929 multiple myeloma tumour line; assay: In vitro cytotoxicity, Microculture Tetrazolium Assay; assay type: cell-based; conditions: Homo sapiens, NCI-H929, 48 h, read-out: IC50 (μM) MTT H929
Protocol: The cytotoxicity studies were carried out on the H929 multiple myeloma tumour line.
The cells are distributed onto microplates and exposed to the test compounds for 48 hours.

Mcl-1 protein = Mcl-1 protein (UniProtKB primary accession number: Q07820) (Homo sapiens, UniProt Q07820); assay: Inhibition of Mcl-1 by fluorescence polarisation, Method 1; assay type: binding; conditions: for IC50: read-out: IC50 (M) Mcl-1 FP
Chain of Mcl-1 protein (Q07820 whole entry): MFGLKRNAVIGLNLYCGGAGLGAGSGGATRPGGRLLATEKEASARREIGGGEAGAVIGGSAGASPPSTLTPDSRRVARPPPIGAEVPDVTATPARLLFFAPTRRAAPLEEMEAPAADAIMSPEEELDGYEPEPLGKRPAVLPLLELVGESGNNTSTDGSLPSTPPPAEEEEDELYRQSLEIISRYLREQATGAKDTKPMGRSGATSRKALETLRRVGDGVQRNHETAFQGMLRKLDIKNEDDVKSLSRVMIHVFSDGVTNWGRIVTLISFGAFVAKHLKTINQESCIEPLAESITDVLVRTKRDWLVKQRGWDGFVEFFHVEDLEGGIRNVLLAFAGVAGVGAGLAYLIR
Outline: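 An 11-point DMSO dilution of compound is mixed with buffer (10 mM HEPES, 150 mM NaCl, 0.05% Tween 20, pH 7.4) carrying 1 nM fluorescein-labelled ligand and 5 nM Mcl-1, final concentrations. Displacement is monitored by fluorescence polarisation.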

[2] = H929 cells, 48 hours exposure, MTT
[3] = fluorescence polarisation test, Method 2 values are underlined in the patent (underlining not visible here)
[4] = fluorescence polarisation, Method 1, or Method 2
[5] = fluorescence polarisation test, Method 1, or Method 2 where the value is underlined (underlining not visible)

Row | Structure (SMILES) | IC50 (Mcl-1 protein; [3]) [M] | IC50 (Mcl-1 protein; [4]) [M] | other results
1 | COc1cccc(CC(Oc2ncnc3sc(-c4ccco4)c(-c4ccc(OCCN5CCN(C)CC5)c(Cl)c4C)c23)C(=O)O)c1 [Example 349, (2R)-2-{[(5Sa)-5-{3-chloro-2-methyl-4-[2-(4-methylpiperazin-1-yl)ethoxy]phenyl}-6-(furan-2-yl)thieno[2,3-d]pyrimidin-4-yl]oxy}-3-(3-methoxyphenyl)propanoic acid] | 2.7e-08 |  | IC50 [1, 2]: 2.46 µM
2 | Cc1c(-c2c(-c3ccc(F)o3)sc3ncnc(OC(Cc4ccccc4OCc4ccnn4CC(F)(F)F)C(=O)O)c23)ccc(OCCN2CCN(C)CC2)c1Cl [Example 185, (2R)-2-{[(5Sa)-5-{3-chloro-2-methyl-4-[2-(4-methylpiperazin-1-yl)ethoxy]phenyl}-6-(5-fluorofuran-2-yl)thieno[2,3-d]pyrimidin-4-yl]oxy}-3-(2-{[1-(2,2,2-trifluoroethyl)-1H-pyrazol-5-yl]methoxy}phenyl)propanoic acid] |  |  | IC50 [1]: 0.012 µM
3 | Cc1c(-c2c(-c3ccco3)sc3ncnc(OC(Cc4ccccc4OCc4ccnn4CC(F)(F)F)C(=O)O)c23)ccc(OCCN2CCN(C)CC2)c1Cl [Example 265, (2R)-2-{[(5Sa)-5-{3-chloro-2-methyl-4-[2-(4-methylpiperazin-1-yl)ethoxy]phenyl}-6-(furan-2-yl)thieno[2,3-d]pyrimidin-4-yl]oxy}-3-(2-{[1-(2,2,2-trifluoroethyl)-1H-pyrazol-5-yl]methoxy}phenyl)propanoic acid] |  |  | IC50 [1, 2]: 0.016 µM
4 | COc1ccccc1C[C@@H](Oc1ncnc2sc(-c3ccc(F)cc3)c(-c3ccc(OC)c(Cl)c3C)c12)C(=O)OCOC(=O)C(C)(C)C [Example 846, {[(2R)-2-{[(5Sa)-5-(3-chloro-4-methoxy-2-methylphenyl)-6-(4-fluorophenyl)thieno[2,3-d]pyrimidin-4-yl]oxy}-3-(2-methoxyphenyl)propanoyl]oxy}methyl 2,2-dimethylpropanoate] |  |  | percentage fluorescence polarisation inhibition (Mcl-1 FP), partial inhibitors (Mcl-1 protein; test compound at 10 uM, Method 1, or Method 2 where the value is underlined (underlining not visible)): 25.1% @ 10 uM
5 | COc1ccccc1CC(Oc1ncnc2sc(-c3ccco3)c(-c3ccc(OCC[N+]4([O-])CC[N+](C)([O-])CC4)c(Cl)c3C)c12)C(=O)O [Example 297, (2R)-2-{[(5Sa)-5-{3-chloro-2-methyl-4-[2-(4-methyl-1,4-dioxidopiperazin-1-yl)ethoxy]phenyl}-6-(furan-2-yl)thieno[2,3-d]pyrimidin-4-yl]oxy}-3-(2-methoxyphenyl)propanoic acid] | 6.6e-09 |  | 
6 | Cc1ccsc1-c1sc2ncnc(OC(Cc3ccccc3)C(=O)O)c2c1-c1ccc(OCCN2CCN(C)CC2)c(Cl)c1C [Example 517, (2R)-2-{[(5Sa)-5-{3-chloro-2-methyl-4-[2-(4-methylpiperazin-1-yl)ethoxy]phenyl}-6-(3-methylthiophen-2-yl)thieno[2,3-d]pyrimidin-4-yl]oxy}-3-phenylpropanoic acid] |  | 5.1e-07 | 
7 | CC(=O)NCc1ccccc1CC(Oc1ncnc2sc(-c3ccco3)c(-c3ccc(OCCN4CCN(C)CC4)c(Cl)c3C)c12)C(=O)O [Example 356, (2R)-3-{2-[(acetylamino)methyl]phenyl}-2-{[(5Sa)-5-{3-chloro-2-methyl-4-[2-(4-methylpiperazin-1-yl)ethoxy]phenyl}-6-(furan-2-yl)thieno[2,3-d]pyrimidin-4-yl]oxy}propanoic acid] | 1.1e-08 |  | 
8 | CC#Cc1sc2ncnc(O[C@H](Cc3ccccc3OC)C(=O)O)c2c1-c1ccc(CCCN(C)C)c(Cl)c1C (single isomer, unassigned) [Example 479] |  | 1.1e-08 | 
9 | COc1ccc(-c2c(-c3ccc(F)cc3)sc3ncnc(OC(Cc4ccccc4OCc4ccnc(N(C)C)n4)C(=O)O)c23)c(C)c1Cl [Example 660, (2R)-2-{[(5Sa)-5-(3-chloro-4-methoxy-2-methylphenyl)-6-(4-fluorophenyl)thieno[2,3-d]pyrimidin-4-yl]oxy}-3-(2-{[2-(dimethylamino)pyrimidin-4-yl]methoxy}phenyl)propanoic acid] |  | 5.1e-08 | 
10 | COc1ccccc1CC(Oc1ncnc2sc(-c3ccc(F)cc3)c(-c3ccc(OCCN4CCN(C)CC4)c(Cl)c3C)c12)C(=O)OCC(=O)N(C)C [Example 844, 2-(dimethylamino)-2-oxoethyl (2R)-2-{[(5Sa)-5-{3-chloro-2-methyl-4-[2-(4-methylpiperazin-1-yl)ethoxy]phenyl}-6-(4-fluorophenyl)thieno[2,3-d]pyrimidin-4-yl]oxy}-3-(2-methoxyphenyl)propanoate] |  |  | IC50 (Mcl-1 protein; [5]): 1.67e-06 M
11 | Cc1c(-c2c(-c3ccc(F)cc3)sc3ncnc(OC(Cc4ccccc4OCC4CCCO4)C(=O)O)c23)ccc(OCCN2CCN(C)CC2)c1Cl [Example 2, (2R)-2-{[(5Sa)-5-{3-chloro-2-methyl-4-[2-(4-methylpiperazin-1-yl)ethoxy]phenyl}-6-(4-fluorophenyl)thieno[2,3-d]pyrimidin-4-yl]oxy}-3-{2-[(2R)-tetrahydrofuran-2-ylmethoxy]phenyl}propanoic acid] | 1.2e-08 |  | 
12 | Cc1cnccc1-c1nccc(COc2ccccc2CC(Oc2ncnc3sc(-c4ccc(F)cc4)c(-c4ccc(OCCN5CCN(C)CC5)c(Cl)c4C)c23)C(=O)O)n1 [Example 120, (2R)-2-{[(5Sa)-5-{3-chloro-2-methyl-4-[2-(4-methylpiperazin-1-yl)ethoxy]phenyl}-6-(4-fluorophenyl)thieno[2,3-d]pyrimidin-4-yl]oxy}-3-(2-{[2-(3-methylpyridin-4-yl)pyrimidin-4-yl]methoxy}phenyl)propanoic acid] | 3.8e-09 |  | 
13 | CCc1sc2ncnc(OC(Cc3ccccc3)C(=O)O)c2c1-c1cc(Cl)c(O)c(Cl)c1C [Example 429, (2R)-2-{[(5Ra)-5-(3,5-dichloro-4-hydroxy-2-methylphenyl)-6-ethylthieno[2,3-d]pyrimidin-4-yl]oxy}-3-phenylpropanoic acid] |  | 5.3e-08 | 
14 | COc1ccccc1-c1nccc(COc2ccccc2CC(Oc2ncnc3sc(-c4ccc(Oc5ccccc5)cc4)c(-c4ccc(OCCN5CCN(C)CC5)c(Cl)c4C)c23)C(=O)O)n1 (single isomer, unassigned) [Example 758] |  | 3.53e-07 | 
15 | CCc1sc2ncnc(OC(Cc3ccccc3F)C(=O)O)c2c1-c1ccc(OCCN2CCN(C)CC2)c(Cl)c1C [Example 464, (2S)-2-[((5Ra)-5-{3-chloro-2-methyl-4-[2-(4-methylpiperazin-1-yl)ethoxy]phenyl}-6-ethylthieno[2,3-d]pyrimidin-4-yl)oxy]-3-(2-fluorophenyl)propanoic acid] |  | 3.9e-07 | 
16 | Cc1c(-c2c(-c3ccc(F)o3)sc3ncnc(OC(Cc4ccccc4OCc4ccnn4C(C)(C)C)C(=O)O)c23)ccc(OCCN2CCN(C)CC2)c1Cl [Example 181, (2R)-3-{2-[(1-tert-butyl-1H-pyrazol-5-yl)methoxy]phenyl}-2-{[(5Sa)-5-{3-chloro-2-methyl-4-[2-(4-methylpiperazin-1-yl)ethoxy]phenyl}-6-(5-fluorofuran-2-yl)thieno[2,3-d]pyrimidin-4-yl]oxy}propanoic acid] | 4.8e-09 |  | 
17 | CCc1sc2ncnc(OC(Cc3ccccc3)C(=O)O)c2c1-c1cc(CN2CCN(C)CC2)c(O)c(Cl)c1C [Example 430, (2R)-2-[((5Sa)-5-{3-chloro-4-hydroxy-2-methyl-5-[(4-methylpiperazin-1-yl)methyl]phenyl}-6-ethylthieno[2,3-d]pyrimidin-4-yl)oxy]-3-phenylpropanoic acid] |  | 1.4e-07 | 
18 | CCOC(=O)[C@@H](Cc1ccccc1OC[C@H]1CCCO1)Oc1ncnc2sc(-c3ccc(F)cc3)c(-c3ccc(OCCN4CCN(C)CC4)c(Cl)c3C)c12 [Example 628, ethyl (2R)-2-{[(5Sa)-5-{3-chloro-2-methyl-4-[2-(4-methylpiperazin-1-yl)ethoxy]phenyl}-6-(4-fluorophenyl)thieno[2,3-d]pyrimidin-4-yl]oxy}-3-{2-[(2R)-tetrahydrofuran-2-ylmethoxy]phenyl}propanoate] |  |  | percentage fluorescence polarisation inhibition, Mcl-1 FP (Mcl-1 protein; partial inhibitors, @ 10 uM test compound): 33.2% @ 10 uM
19 | CCOC(=O)C(Cc1ccccc1OCc1ccnc(-c2ccccc2O)n1)Oc1ncnc2sc(-c3ccc(F)cc3)c(-c3ccc(OCCN4CCNCC4)c(Cl)c3C)c12 [Example 798, ethyl (2R)-2-{[(5Sa)-5-{3-chloro-2-methyl-4-[2-(piperazin-1-yl)ethoxy]phenyl}-6-(4-fluorophenyl)thieno[2,3-d]pyrimidin-4-yl]oxy}-3-(2-{[2-(2-hydroxyphenyl)pyrimidin-4-yl]methoxy}phenyl)propanoate] |  |  | IC50 (Mcl-1 protein; [5]): 5.15e-06 M
20 | Cc1ccncc1-c1nccc(COc2ccccc2CC(Oc2ncnc3sc(-c4ccc(F)cc4)c(-c4ccc(OCCN5CCN(C)CC5)c(Cl)c4C)c23)C(=O)O)n1 [Example 123, (2R)-2-{[(5Sa)-5-{3-chloro-2-methyl-4-[2-(4-methylpiperazin-1-yl)ethoxy]phenyl}-6-(4-fluorophenyl)thieno[2,3-d]pyrimidin-4-yl]oxy}-3-(2-{[2-(4-methylpyridin-3-yl)pyrimidin-4-yl]methoxy}phenyl)propanoic acid] | 4.3e-09 |  | 
21 | COCCOC(=O)C(Cc1ccccc1OCc1ccnn1C(C)(C)C)Oc1ncnc2sc(-c3ccc(F)cc3)c(-c3ccc(OCCN(C)C)c(Cl)c3C)c12 [Example 802, 2-methoxyethyl (2R)-3-{2-[(1-tert-butyl-1H-pyrazol-5-yl)methoxy]phenyl}-2-{[(5Sa)-5-{3-chloro-4-[2-(dimethylamino)ethoxy]-2-methylphenyl}-6-(4-fluorophenyl)thieno[2,3-d]pyrimidin-4-yl]oxy}propanoate] |  |  | IC50 (Mcl-1 protein; [5]): 2.88e-06 M
